This note sets out measurements from US8022091B2, “Triazole derivative” (Taisho Pharmaceutical Co., Ltd., priority 2006, dated 2011).

T1 sequence (P21453 whole entry): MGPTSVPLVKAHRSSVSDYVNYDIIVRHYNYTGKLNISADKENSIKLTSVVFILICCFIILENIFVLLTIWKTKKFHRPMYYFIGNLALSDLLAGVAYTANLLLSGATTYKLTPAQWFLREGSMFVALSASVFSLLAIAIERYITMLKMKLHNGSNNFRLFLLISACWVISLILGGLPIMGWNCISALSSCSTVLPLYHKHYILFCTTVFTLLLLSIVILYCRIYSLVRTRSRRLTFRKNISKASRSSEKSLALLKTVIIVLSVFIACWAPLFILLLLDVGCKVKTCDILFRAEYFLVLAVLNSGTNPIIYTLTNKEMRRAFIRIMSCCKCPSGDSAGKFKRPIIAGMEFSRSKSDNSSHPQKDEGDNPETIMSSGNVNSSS

The first assay addresses T1, human Edg-1 (S1P1) (Homo sapiens, UniProt P21453).
T1 construct: expressed in transfected cells; host or cells: HEK-293
Briefly: S1P1 binding assay: inhibition of [33P]-S1P binding to membrane fraction of HEK-293 cells transferred with the human Edg-1 (S1P1) gene. The settings on record: [33P]-S1P 0.1 nM, human Edg-1 (S1P1) HEK-293 membrane fraction, 1 h at 30° C.; read-out: IC50 (concentration at which binding in the absence of the test compound was inhibited by 50%). As to the method: The membrane fraction was obtained by treating the cells with a solubilizing buffer (1 mM Tris/HCl, pH 7.2) for 10 minutes on ice, centrifuging at 1000×g for 5 minutes to remove insoluble fractions, and then centrifuging at 40000×g for 30 minutes at 4° C. The resulting membrane fraction was dissolved in a binding buffer (20 mM Tris-HCl, pH 7.4, 100 mM NaCl, 15 mM NaF, 2 mM deoxypyridoxine, 4 mg/mL fatty acid-free BSA), and then [^33P]-S1P (manufactured by ARC, final concentration 0.1 nM) and a DMSO solution (final concentration of the compound 10^−5M, final concentration of DMSO 0.1%) of the test compound were added. Thereafter, the mixture was stirred and then treated for one hour at 30° C. Using a harvester, the membrane fraction was harvested onto unifilter-96 GF/C filter (manufactured by Perkin Elmer), washing was carried out four times with the binding buffer, and the filter was dried. Twenty five μL Microscint 0 (manufactured by Perkin Elmer) was added, and radioactivity was measured using Top Count NXT (manufactured by Packard) to calculate the amount (A) of [^33P]-S1P bound to the membrane fraction at the time when the compound was added.
The same procedure was carried out in the absence of the test compound, and the amount (B) of [^33P]-S1P bound was calculated. Further, the same procedure was carried out in the absence of the test compound by use of HEK-293 cells to which no Edg-1 (S1P1) gene was introduced, and the background amount (C) of [^33P]-S1P bound was calculated.
Inhibition rate (%)=[1−(A−C)/(B−C)]×100
Further, concentrations (IC50) at the time when binding in the absence of the test compound was inhibited by 50% were calculated. The membrane system binding assay was carried out in the presence of test compounds with various concentrations, and the Edg-1 (S1P1) binding inhibition rates were calculated using the equation above. Then, IC50 values were calculated using Origin (Lightstone Corp.), a software for data analysis.
With `CCn1c(Nc2ccc(C)cc2)nnc1[C@@H](C)NS(=O)(=O)c1ccc(Cl)c(Cl)c1` [Compound 61, N-[(1R)-1-(4-Ethyl-5(4-methylphenylamino)-4H-[1,2,4]triazol-3-yl)ethyl]3,4-dichlorobenzenesulfonamide], the IC50 was found to be 39 nM.

Still in this assay, the particulars now being: test compound 10 μM; inhibition of [33P]-S1P binding, membrane fraction.
One may read the inhibition as the relative decrease from the control value, in per cent. Regarding `CCn1c(Oc2cccc(N3CCN(C)CC3)c2)nnc1[C@@H](C)NS(=O)(=O)c1ccc2c(c1)CCC(C)(C)O2` [Compound 673], the inhibition at 10 µM was 62%.

Consider `CCn1c(Oc2ccc3cc[nH]c3c2)nnc1[C@@H](C)CS(=O)(=O)c1ccc(F)c2ccccc12` [Compound 478], for which the inhibition at 10 µM turned out to be 87%.

Consider `CCn1c(Oc2cccc(N3CCN(C)CC3)c2)nnc1[C@@H](C)NS(=O)(=O)c1cccc2nsnc12` [Compound 632], for which the inhibition at 10 µM came to 59.9%.

On to `CCn1c(Oc2cccc(N3CCN(C)CC3)c2)nnc1[C@@H](C)NS(=O)(=O)Cc1cccc(Cl)c1` [Compound 599], for which the inhibition at 10 µM is 80.6%.

For the compound `CCn1c(Oc2cccc(N3CCN(C)CC3)c2)nnc1[C@@H](C)NS(=O)(=O)c1ccc(C#N)cc1` [Compound 564], the inhibition at 10 µM stood at 105%.

Regarding `CCn1c(Oc2cccc(N3CCN(C)CC3)c2)nnc1[C@@H](C)NS(=O)(=O)c1ccc(C(C)=O)cc1` [Compound 497], the inhibition at 10 µM worked out at 104%.

Turning to `CCn1c(Oc2cccc(N3CCN(C)CC3)c2)nnc1[C@@H](C)NS(=O)(=O)c1cc(Br)cc(C(F)(F)F)c1` [Compound 658], the inhibition at 10 µM stood at 80.4%.

On to `CCn1c(Oc2ccc3cc[nH]c3c2)nnc1[C@@H](C)NS(=O)(=O)c1ccc(Cl)cc1F` [Compound 438], for which the inhibition at 10 µM worked out at 71.6%.

As for `CCn1c(Oc2cccc(N3CCN(C)CC3)c2)nnc1[C@@H](C)NS(=O)(=O)c1ccc(Br)cc1` [Compound 499], the inhibition at 10 µM amounted to 109%.

For `CCn1c(Oc2cccc(N3CCN(C)CC3)c2)nnc1[C@@H](C)NS(=O)(=O)c1cccc2ccccc12` [Compound 522], the inhibition at 10 µM turned out to be 98.4%.

Regarding `CCn1c(Oc2ccc3cc[nH]c3c2)nnc1[C@@H](C)NS(=O)(=O)CC1CCCCC1` [Compound 458], the inhibition at 10 µM was 83.8%.

On to `CCn1c(Oc2ccc3cc[nH]c3c2)nnc1[C@@H](C)NS(=O)(=O)c1ccc(F)cc1Br` [Compound 441], for which the inhibition at 10 µM turned out to be 63%.

In the case of `CCn1c(Oc2cccc(N3CCN(C)CC3)c2)nnc1[C@@H](C)NS(=O)(=O)c1ccc(F)cc1C(F)(F)F` [Compound 622], the inhibition at 10 µM was 58.9%.

Take `CCn1c(Oc2cccc(N3CCN(C)CC3)c2)nnc1[C@@H](C)NS(=O)(=O)c1c(C)cc(Cl)cc1Cl` [Compound 595]: the inhibition at 10 µM stood at 93.7%.

For `CCn1c(Oc2cccc(N3CCN(C)CC3)c2)nnc1[C@@H](C)NS(=O)(=O)c1ccccc1F` [Compound 571], the inhibition at 10 µM stood at 55.7%.

With `CCc1cc(Br)ccc1S(=O)(=O)N[C@H](C)c1nnc(Oc2cccc(N3CCN(C)CC3)c2)n1CC` [Compound 574], the inhibition at 10 µM turned out to be 86.9%.

On to `CCn1c(Oc2ccc3cc[nH]c3c2)nnc1[C@@H](C)NS(=O)(=O)c1cc(F)cc(Cl)c1C` [Compound 405], for which the inhibition at 10 µM was 61.4%.

For `CCn1c(Oc2cccc(N3CCN(C)CC3)c2)nnc1[C@@H](C)NS(=O)(=O)c1ccc(C#N)cc1Cl` [Compound 576], the inhibition at 10 µM is 81.4%.

Turning to `CCn1c(Oc2cccc(N3CCN(C)CC3)c2)nnc1[C@@H](C)NS(=O)(=O)c1ccccc1Cl` [Compound 552], the inhibition at 10 µM was 67.2%.

Turning to `CCn1c(Oc2ccc3cc[nH]c3c2)nnc1[C@@H](C)NS(=O)(=O)c1cc(F)c(F)c(F)c1` [Compound 439], the inhibition at 10 µM was 98.1%.

As to `CCn1c(Oc2cccc(N3CCN(C)CC3)c2)nnc1[C@@H](C)NS(=O)(=O)c1ccc(F)c(C#N)c1` [Compound 601], the inhibition at 10 µM turned out to be 100%.

As to `CCn1c(Oc2cccc(N3CCN(C)CC3)c2)nnc1[C@@H](C)NS(=O)(=O)c1ccc(C(F)(F)F)cc1Br` [Compound 610], the inhibition at 10 µM is 91.2%.

`CCn1c(Oc2cccc(N3CCN(C)CC3)c2)nnc1[C@@H](C)NS(=O)(=O)c1cc(C(F)(F)F)ccc1Cl` [Compound 591]: the inhibition at 10 µM worked out at 77.5%.

Consider `CCn1c(Oc2cccc(N3CCN(C)CC3)c2)nnc1[C@@H](C)NS(=O)(=O)c1ccc(Br)cc1Cl` [Compound 616], for which the inhibition at 10 µM was 99.9%.

Regarding `CCn1c(Oc2ccc3cc[nH]c3c2)nnc1[C@@H](C)NS(=O)(=O)c1ccc(Br)cc1Cl` [Compound 448], the inhibition at 10 µM is 81.1%.

`CCn1c(Oc2cccc(N3CCN(C)CC3)c2)nnc1[C@@H](C)NS(=O)(=O)c1ccc(Cl)c(S(N)(=O)=O)c1` [Compound 654]: the inhibition at 10 µM came out at 71.7%.

As for `CCn1c(Oc2cccc(N3CCN(C)CC3)c2)nnc1[C@@H](C)NS(=O)(=O)CC(c1ccccc1)c1ccccc1` [Compound 587], the inhibition at 10 µM came to 60%.

On to `CCn1c(Oc2ccc(F)cc2)nnc1C(NS(=O)(=O)c1ccc(Cl)c(Cl)c1)C(F)(F)F` (stereo not shown) [Compound 687, 3,4-Dichloro-N-[1-[4-ethyl-5-(4-fluorophenoxy)-4H-[1,2,4]triazol-3-yl]-2,2,2-trifluoroethyl]-benzenesulfonamide], for which the inhibition at 10 µM was found to be 80.1%.

`CCn1c(Oc2cccc(N3CCN(C)CC3)c2)nnc1[C@@H](C)NS(=O)(=O)c1cccc2nonc12` [Compound 634]: the inhibition at 10 µM was 51%.

Staying with this assay, now noted: test compound at 10 μM; inhibition of [33P]-S1P binding to the membrane fraction of HEK-293 cells expressing human Edg-1 (S1P1).
Regarding `CCn1c(Oc2ccc3cc[nH]c3c2)nnc1[C@@H](C)NS(=O)(=O)c1ccc(I)cc1` [Compound 355], the inhibition at 10 µM worked out at 98.8%.

As for `CCn1c(Oc2ccc(F)cc2)nnc1[C@@H](C)NS(=O)(=O)c1cccc(Cl)c1F` [Compound 280], the inhibition at 10 µM is 87.3%.

On to `CCn1c(Oc2ccc3cc[nH]c3c2)nnc1[C@@H](C)NS(=O)(=O)c1ccccc1C` [Compound 361], for which the inhibition at 10 µM turned out to be 96.9%.

On to `CCn1c(Oc2ccc(F)cc2)nnc1[C@@H](C)NS(=O)(=O)c1ccc(I)cc1` [Compound 182], for which the inhibition at 10 µM amounted to 109%.

In the case of `CCn1c(Oc2ccc3cc[nH]c3c2)nnc1[C@@H](C)NS(=O)(=O)c1ccccc1` [Compound 328], the inhibition at 10 µM came to 85.2%.

Consider `CCn1c(Oc2ccc(F)cc2)nnc1[C@@H](C)NS(=O)(=O)c1cccc2ccccc12` [Compound 179], for which the inhibition at 10 µM is 83%.

Turning to `CCn1c(Oc2ccc3cc[nH]c3c2)nnc1[C@@H](C)NS(=O)(=O)c1cccc(Cl)c1Cl` [Compound 379], the inhibition at 10 µM was 89.2%.

Take `CCn1c(Oc2ccc(F)cc2)nnc1[C@@H](C)NS(=O)(=O)c1ccc(Cl)c(Cl)c1Cl` [Compound 207]: the inhibition at 10 µM came to 108%.

Regarding `CCn1c(Oc2ccc(F)cc2)nnc1[C@@H](C)NS(=O)(=O)c1ccc(C(C)C)cc1` [Compound 232], the inhibition at 10 µM was determined as 68.7%.

On to `CCn1c(Oc2ccc3cc[nH]c3c2)nnc1[C@@H](C)NS(=O)(=O)c1cccc(Br)c1` [Compound 333], for which the inhibition at 10 µM worked out at 102%.

Consider `CCn1c(Oc2ccc(F)cc2)nnc1[C@@H](C)NS(=O)(=O)c1ccc(Cl)c(S(N)(=O)=O)c1` [Compound 314], for which the inhibition at 10 µM is 52.2%.

`CCn1c(Oc2ccc(F)cc2)nnc1[C@@H](C)NS(=O)(=O)c1ccc(F)c(C#N)c1` [Compound 261]: the inhibition at 10 µM was 73.6%.

As for `CCn1c(Oc2ccc(F)cc2)nnc1[C@@H](C)NS(=O)(=O)c1ccc(C(F)(F)F)cc1Br` [Compound 270], the inhibition at 10 µM was 73%.

On to `CCn1c(Oc2ccc(F)cc2)nnc1[C@@H](C)NS(=O)(=O)c1cc(Cl)c(Cl)cc1Cl` [Compound 184], for which the inhibition at 10 µM was found to be 97.3%.

Take `CCn1c(Oc2ccc(F)cc2)nnc1[C@@H](C)NS(=O)(=O)c1cc(F)c(Cl)cc1F` [Compound 243]: the inhibition at 10 µM was found to be 90%.

In the case of `CCCc1ccc(S(=O)(=O)N[C@H](C)c2nnc(Oc3ccc4cc[nH]c4c3)n2CC)cc1` [Compound 377], the inhibition at 10 µM came out at 73.9%.

`CCCc1ccc(S(=O)(=O)N[C@H](C)c2nnc(Oc3ccc(F)cc3)n2CC)cc1` [Compound 206]: the inhibition at 10 µM was determined as 85.4%.

With `CCn1c(Nc2ccc(C)cc2)nnc1[C@@H](C)NS(=O)(=O)c1ccc(Cl)c(Cl)c1` [Compound 61, N-[(1R)-1-(4-Ethyl-5(4-methylphenylamino)-4H-[1,2,4]triazol-3-yl)ethyl]3,4-dichlorobenzenesulfonamide], the inhibition at 10 µM worked out at 102%.

Take `CCn1c(Oc2ccc(F)cc2)nnc1[C@@H](C)NS(=O)(=O)CC1CCCCC1` [Compound 286]: the inhibition at 10 µM worked out at 60.6%.

In the case of `CCn1c(Oc2ccc(F)cc2)nnc1[C@@H](C)NS(=O)(=O)c1ccc(C(F)(F)F)cc1Cl` [Compound 303], the inhibition at 10 µM worked out at 77.4%.

Regarding `CCn1c(Oc2ccc(F)cc2)nnc1[C@@H](C)NS(=O)(=O)c1cccc(OC)c1` [Compound 215], the inhibition at 10 µM was 91.4%.

With `CCn1c(Oc2ccc(F)cc2)nnc1C(C)(C)NS(=O)(=O)c1c(C)cc(C)cc1C` [Compound 174], the inhibition at 10 µM is 52.5%.
